Row | SMILES | melting point
1 | Cc1ccc(F)c2c1N(C(c1ccccc1)c1ccccc1)C(=O)C21COc2cc3c(cc21)CCO3 (configuration not stated) | 81 to 82 °C
2 | CC1(C)CC2(CC(C)(C)N1c1nc(Cl)nc(Cl)n1)OCCO2 | 169 to 172 °C
3 | Nc1ncccc1OCc1ccc(Cl)cc1 | 121 to 123 °C
4 | CC(C)n1c(=O)nc(-c2ccc(N(C)C)cc2)c2cc3c(cc21)OCO3 | 240 to 245 °C
5 | O=C1CN(C(=O)COc2cc(-c3ccccc3)nc3ccccc23)CCN1 | 215 °C
6 | O=C(NCCCCN1CCC(c2ccc3c(c2OCCO)CCCC3)CC1)c1ccc(-c2ccc(Cl)cc2)cc1 | 162 °C
7 | COc1c(-c2ccccc2)c2ccc(-c3ccc(C(C)C)cc3)cc2oc1=O | 85.5 °C
8 | CCn1c(C(=O)OC)c(-c2ccc(OC)c(OC)c2)c2cc(OC)c(OC)cc21 | 191 to 192 °C
9 | COc1ccc(S(=O)(=O)Nc2ncnc(OCCO)c2Cc2ccccc2OC)cc1 | 161 to 162 °C
10 | O=C1CC(c2ccc(O)cc2)=Nc2ccc(N3CCOCC3)cc21 | 340 to 342 °C
11 | NC(Cc1cc(Cl)ccc1CCP(=O)(O)O)C(=O)O (configuration not stated) | > 160 °C
12 | CN(C)C1CCc2[nH]c3ccc(CO)cc3c2C1 (configuration not stated) | 195 to 197 °C
13 | CCCN1CC(O)c2cc(OC)c(OC)c3c2C1Cc1cc(OC)c(OC)cc1-3 (configuration not stated) | 153 to 154 °C
14 | CC(C)(C)OC(=O)N1CCC(C(=O)c2nc3ccccc3n2Cc2ccccc2)CC1 | 122 °C
15 | CCCc1nn(-c2ccc(C(F)(F)F)cn2)cc1CCCOc1c(CC)cccc1CC(=O)O | 146 to 147 °C
16 | CC(C)c1nc(COC(=O)N[C@H](C(=O)N[C@@H](Cc2ccccc2)C[C@H](O)[C@H](Cc2ccccc2)NC(=O)OCc2cncs2)C(C)C)cs1 | 142 to 145 °C
17 | CCCCN1CCN(c2nc(C)c(C(=O)NCc3cccnc3)s2)C1=O | 109 to 111 °C
18 | CCC1c2cccn2-c2ccc(Cl)cc2N1C(=O)c1ccc(OC)cc1OC (configuration not stated) | 70 to 74 °C
19 | CCCc1c(O)cccc1Oc1ccccc1C(=O)OC | 80 °C
20 | CC(C)(C)OC(=O)[C@@H]1CCC(=O)N1C(=O)OC(C)(C)C | 53 to 55 °C
21 | ON=C(c1cc(F)cc(F)c1)c1cccc2nc(N[C@@H]3CCc4ccccc43)ccc12 | 120 °C
22 | CN1CCN(C2=Cc3cc(Cl)ccc3Oc3ccccc32)CC1 | 119 to 121 °C
23 | CCCCCCCCCCCCCCOc1cc(-c2ccccc2)c(OCC(=O)O)c(-c2ccccc2)c1 | 89 to 90 °C
24 | CC(C)c1ccc(C(=O)c2ccc(CC(=O)O)n2C)cc1 | 98 to 101 °C
25 | COC(=O)c1ccc(-c2ccc(OC)c3c2CC(C)(C)O3)cc1 | 116 to 122 °C

Row | SMILES | melting point
26 | OCc1sc(Cl)nc1-c1ccc(Cl)cc1 | 113 to 114 °C
27 | COc1cc(NC2CC3CCC(C2)N3Cc2ccccc2)ccc1C(N)=O (configuration not stated) | 138 to 140 °C
28 | NC(=O)c1ccc(F)c2c1OCC(N(CCCc1c[nH]c3ccc(F)cc13)CC1CC1)C2 (configuration not stated) | 123 °C
29 | COCCOc1ccc(/C=C/C(=O)NS(=O)(=O)C(F)(F)F)c(Oc2ncc(C(F)(F)F)cc2Cl)c1 | 126 to 128 °C
30 | CCCCc1nc(Cl)c(CO)n1Cc1ccc(-c2ccccc2-c2nnnn2-c2ccc([N+](=O)[O-])cc2)cc1 | 182 to 186 °C
31 | CCOC(=O)N1CCC(n2cnc(-c3ccc(F)cc3)c2-c2ccnc(NC)n2)CC1 | 205 to 206 °C
32 | OCCNc1c2c(nc3cn[nH]c13)CCCC2 | 205 to 210 °C
33 | COC1=C(c2ccccc2)C(CCC(=O)O)OC1=O (configuration not stated) | 126 to 127 °C
34 | CCN(CC)C(=O)c1ccc(C(=C2CC3CCC(C2)N3C)c2ccccc2)cc1 | 145 to 147 °C
35 | O=C(O)[C@@H]1CCCN1C(=O)c1cc2cc3c(cc2c2cc(OCc4ccccc4)ccc12)OCO3 | 221 to 223 °C
36 | COc1ccccc1C(=O)c1c(SC)oc2ccccc2c1=O | 145 °C
37 | O=C(O)C(Cl)=C(Cl)C(O)=NCCc1ccc([N+](=O)[O-])cc1 | 166 °C
38 | O=C(O)c1cccc(NC(=O)C(CSC(=O)c2ccccc2)Cc2ccccc2)c1 (configuration not stated) | 182 to 184 °C
39 | CCCCC(CC)CNCCCCOc1ccc2ccccc2c1 (configuration not stated) | 94 °C
40 | Cc1ccccc1-c1nc(-c2cccc(Cl)c2)n[nH]1 | 147 to 148 °C
41 | CCOC(=O)c1cn(CC)c2nc(N3CCN(c4ccccc4)CC3)ncc2c1=O | 186 °C
42 | COc1cccc2c1CCN(C)C2CN1CCC(c2ccccc2)C1 (configuration not stated) | 152 to 153 °C
43 | CCCCCCCCCCCCC(Oc1ccc(NS(=O)(=O)CCCC)cc1)C(=O)O (configuration not stated) | 80 to 82 °C
44 | OCC1OC(n2cnc3c(NCc4ccc(Br)cc4)ncnc32)C(O)C1O (configuration not stated) | 179 °C
45 | O=[N+]([O-])c1ccc(NN=Cc2cnccn2)nc1 | 271 to 272 °C
46 | CC(C)(C)OC(=O)/C=C/c1cccc(-c2nc(=O)c3ccccc3s2)n1 | 176 to 178 °C
47 | CCOC(=O)c1cc(CBr)cc(C(=O)OCC)c1 | 111 to 113 °C
48 | CC(=O)Nc1ccc(-c2ccc(C(C)O)o2)cc1 (configuration not stated) | 175 to 177 °C
49 | COc1cc(C(=O)Cc2ccccc2)ccc1O | 107 to 108 °C
50 | COc1ccc2c(c1)C(CC(=O)O)=C(C)C2=Cc1ccc(S(N)(=O)=O)cc1 | 224 to 225 °C

Row | SMILES | melting point
51 | CC1N=C(N2CCN(C)CC2)NN=C1c1ccccc1 (configuration not stated) | 124 to 125 °C
52 | CCOc1ccc(/C=C/c2cc(OC)cc(OC)c2)cc1 | 54 to 55 °C
53 | O=C(c1ccccc1CN1CC=CCC1)N1CCN2C(=O)OC(c3ccccc3)(c3ccccc3)C2C1 (configuration not stated) | 155 to 157 °C
54 | O=C(Cn1sc2ccccc2c1=O)N1CCN(C(=O)OCc2ccccc2)CC1 | 138 to 142 °C
55 | CCCC(Oc1cccc(-c2noc(C)n2)c1)C(=O)O (configuration not stated) | 98 to 100 °C
56 | FC(F)(F)c1cccc(-c2cc(C(F)(F)F)n3ncc(-c4ccncc4)c3n2)c1 | 241 °C
57 | NC(Cc1ccccc1)C(O)C(F)(F)F (configuration not stated) | 110 to 111 °C
58 | COCCOc1cc2ncnc(NC3=CC(=O)C(Br)=CC3=O)c2cc1OC | 200 to 210 °C
59 | COc1ccc(OC)c2cc3c(cc12)C1OC3C2=C1CCC(C(C)=O)C2 (configuration not stated) | 167 to 168 °C
60 | N#Cc1ccc2oc3ncccc3c(=O)c2c1 | 260 °C
61 | CC(C)=CCOc1ccc2cc(C(C)C(=O)O)ccc2c1 (configuration not stated) | 97 to 100 °C
62 | Cc1cc(-c2noc(C(F)(F)F)n2)cc(C)c1OCCCc1ccc(CO)nc1 | 92 to 94 °C
63 | CN(C)C(=O)c1cn(Cc2ccccc2Cl)nn1 | 120 to 121 °C
64 | CN(C#N)c1ccc(OCc2ccccc2)cc1 | 116 °C
65 | CC(C)(C)c1cc(N2Cc3ccccc3C2=O)cc(C(C)(C)C)c1O | 205 to 207 °C
66 | Cc1[nH]c(=O)n(CCC(C(=O)NO)N(C)S(=O)(=O)c2ccc(Oc3ccccc3)cc2)c(=O)c1F (configuration not stated) | 196 to 198 °C
67 | Cn1nc2c(c1S(C)(=O)=O)CCCN2c1ccc(Cl)cc1Cl | 182 to 183 °C
68 | COC(=C(OC)c1ccccc1OC)c1ccc(N)nn1 | 139 to 142 °C
69 | CC(C(=O)O)c1ccc([N+](=O)[O-])c(F)c1 (configuration not stated) | 74 to 77 °C
70 | COc1cccc(SSc2cccc(OC)c2S(=O)(=O)NC(C)(C)C)c1S(=O)(=O)NC(C)(C)C | 275 °C
71 | NC1N=C(Cl)C=C(Cl)N1c1c([N+](=O)[O-])cc([N+](=O)[O-])cc1C(F)(F)F (configuration not stated) | 170 to 173 °C
72 | CC(C)CCN1C(=O)C(NC(=O)Oc2cccc(N(C)C)c2)C(=O)N(c2ccccc2)c2ccc(Cl)cc21 (configuration not stated) | 199 to 200 °C
73 | CC(=O)Nc1c(I)c(C(=O)O)c(I)c(C(=O)NCC(=O)O)c1I | 201 to 202 °C
74 | COCCc1nc2c(N)nc3ccccc3c2n1CCCCNC(=O)c1c[nH]c2ccccc12 | 226 to 227 °C
75 | CC#CCOc1ccc(S(=O)(=O)C2(C(=O)NO)CCCN(Cc3ccc(Cl)cc3)C2)cc1 (configuration not stated) | 124 °C

Row | SMILES | melting point
76 | COc1ccc(S(=O)(=O)C(C(=O)NO)C(C)C)cc1 (configuration not stated) | 220 °C
77 | O=C(CC(F)=C(F)F)Oc1ccc([N+](=O)[O-])cc1 | 58 to 62 °C
78 | COC(=O)c1ccc(C#CCCO)cc1 | 95.5 to 96 °C
79 | CNC(=O)c1snc(-c2cccc(C(F)(F)F)c2)c1N | 113 °C
80 | O=C(c1cccnc1)N1CC2COc3ccc(Cl)cc3C2=N1 (configuration not stated) | 165 to 166 °C
81 | COC(=O)c1ccc(CNC(=O)c2[nH]c(-c3cccs3)cc2-c2ccc(F)cc2)nc1 | 174 to 176 °C
82 | O=C(OCC1CC1)c1ncn2c1[C@@H]1CCCN1C(=O)c1c-2ccc(Cl)c1Cl | 185 to 186 °C
83 | CCC(=O)OC(C)(CC)c1nc2c(C(F)(F)F)cccc2c(O)c1C(=O)Nc1ccccn1 (configuration not stated) | 192 °C
84 | CNC1CC=C(c2c[nH]c3cc([N+](=O)[O-])ccc23)CC1 (configuration not stated) | 170 to 172 °C
85 | CCCP(=O)(CCC)Cc1ccc(NC(=O)C2=Cc3cc(-c4ccc(C)cc4)ccc3OCC2)cc1 | 219 to 220 °C
86 | NC(=O)C1CCc2[nH]c3ccc(Cl)cc3c2C1 (configuration not stated) | 247 to 248 °C
87 | COc1nc(C)nc(NC(=O)NS(=O)(=O)c2ccccc2C=CC(F)(F)F)n1 | 154 to 155 °C
88 | Cc1sc2c(Br)c3ccccc3c(-c3cc(Br)c(O)c(NC(=O)OC(C)(C)C)c3)c2c1C | 205 to 207 °C
89 | CCc1c(C)cc(C(=O)NC(C(=O)OC)c2cccs2)c(=O)n1Cc1ccc(F)cc1 (configuration not stated) | 182 to 184 °C
90 | CCCc1cc(-c2ccc(Cl)cc2)nc2c(C(=O)Nc3cccc(S(C)(=O)=O)c3)cnn12 | 214 to 217 °C
91 | Clc1ccc(N2CCN=C2C(Cn2cncn2)c2ccccc2)c(Cl)c1 (configuration not stated) | 78 to 82 °C
92 | O=C(Nc1ccc(C(=O)N2Cc3ccccc3Oc3ccccc32)c(Cl)c1)c1ccccc1-c1ccccc1 | 145 to 188 °C
93 | CN(C)c1ccc(C2=NC[C@@H](OC(=O)Nc3ccccc3)[C@H](c3ccccc3)O2)cc1 (racemic) | 172 °C
94 | CC(C(=O)c1ccc(F)cc1F)c1ncccn1 (configuration not stated) | 118 to 119 °C
95 | COc1cc(C(C)=O)ccc1OCCCN1CCC(c2noc3ccccc23)CC1 | 102 to 104 °C
96 | COc1ccc(C(=O)Nc2ccccc2)c2c1oc1ccc(NC(C)=O)cc12 | 252 °C
97 | CCCn1cc(Cc2ccc(C(=O)OC)cc2OC)c2cc(C=O)ccc21 | 99 to 100 °C

— a melting point compilation (Tetko et al.; mined from patent text by program, amines drawn as free bases though some values may be those of a salt)
